The subject of one data set is Arabidopsis seedlings. Description: Arabidopsis seedling growth / root elongation on MS medium with exogenous NAE 12:0. Type of data set: in vivo. Particulars: for EC50: Arabidopsis thaliana. The method, then: FIG. 11A-11C. Lengths of Arabidopsis seedling radicles/roots were measured daily after planting on MS medium that contained increasing concentrations of NAE 12:0. Data points are averages and standard deviation of 20 or more seedlings germinated and grown under identical conditions. There was a pronounced dose-dependent reduction in radicle/root length and elongation rate, similar to that shown previously (Blancaflor et al., 2003) for wildtype seedlings (FIG. 11A), and this seedling growth inhibition was more pronounced at higher NAE concentrations for both knockout lines (FIG. 11B and FIG. 11C).
FIG. 12. The rate of root elongation was calculated by a linear regression of the data presented in FIG. 11, and plotted as a function of NAE concentration.
Composite images were taken from seedlings grown on different plates, and were representative of typical replicate experiments. […] The altered profiles of extractable FAAH enzyme activities in mutant and transgenic plants led to predictable differences in the sensitivity of seedlings to exogenous NAE 12:0 indicating a modified ability of these plants to metabolize NAEs. Seedling growth of Arabidopsis wildtype seedlings was inhibited by exogenous treatment of NAE12:0).

The test system of another data set is rice (Os) FAAH. Description: NAE amidohydrolase activity of E. coli lysates expressing rice (Os) FAAH cDNA. It counts as biochemical, Oryza sativa. Conditions: E. coli lysate, compared with NAE 18:2.
Data set [1] concerns the target Medicago truncatula (Mt) FAAH (Medicago truncatula, UniProt G7ISB0, G303S). It counts as biochemical. Conditions: E. coli lysate, compared with NAE 18:2.
The target of data set [2] is Arabidopsis NAE amidohydrolase (Arabidopsis thaliana, UniProt Q7XJJ7). Put plainly: NAE amidohydrolase activity survey in crude E. coli lysates expressing Arabidopsis cDNA. Type of data set: biochemical.
Data set [3] has as its target Arabidopsis NAE amidohydrolase (FAAH) (Arabidopsis thaliana, UniProt Q7XJJ7). Type of data set: biochemical.
Substrate in data set [4]: CCCCC/C=C\C/C=C\CCCCCCCC(=O)NCCO
Put plainly: purified protein, by the assay type. Conditions: other: apparent, substrate, 1 μg protein, pH 9.0, 30 min, 30° C., Michaelis-Menten fit.

Substrate in data set [5]: CCCCCCCCCCCC(=O)NCCO
Description: purified protein, by the assay type. Conditions: other: apparent, substrate, 1 μg protein, pH 9.0, 30 min, 30° C., Michaelis-Menten fit.

Substrate in data set [6]: CCCCC/C=C\C/C=C\C/C=C\C/C=C\CCCC(=O)NCCO
Put plainly: purified protein, by the assay type. Conditions: other: apparent, substrate, 1 μg protein, pH 9.0, 30 min, 30° C., Michaelis-Menten fit.

Substrate in data set [7]: CCCCCCCCCCCCCC(=O)NCCO
Description: purified protein, by the assay type. Conditions: other: apparent, substrate, 1 μg protein, pH 9.0, 30 min, 30° C., Michaelis-Menten fit.

Substrate in data set [8]: CCCCCCCCCCCCCCCC(=O)NCCO
Put plainly: purified protein, by the assay type. Particulars: other: apparent, substrate, 1 μg protein, pH 9.0, 30 min, 30° C., Michaelis-Menten fit.

Experimental findings from US7316928B2, “Plant fatty acid amide hydrolases” (The University of North Texas, priority 2003, dated 2008) are described below.

Several values for one entry are separate records, joined by “and”; a condition that tells them apart may be missing. Equal values may be shown once. Read-outs that look alike come from different tables or passages of the source.

What is called Km is the substrate concentration at which the rate is half of its maximum. As a reminder, the Vmax is the top rate of the reaction or transport when substrate is in excess.

Medicago truncatula (Mt) FAAH, sequence (G7ISB0 whole entry G303S, looked up, the tested form may be a part): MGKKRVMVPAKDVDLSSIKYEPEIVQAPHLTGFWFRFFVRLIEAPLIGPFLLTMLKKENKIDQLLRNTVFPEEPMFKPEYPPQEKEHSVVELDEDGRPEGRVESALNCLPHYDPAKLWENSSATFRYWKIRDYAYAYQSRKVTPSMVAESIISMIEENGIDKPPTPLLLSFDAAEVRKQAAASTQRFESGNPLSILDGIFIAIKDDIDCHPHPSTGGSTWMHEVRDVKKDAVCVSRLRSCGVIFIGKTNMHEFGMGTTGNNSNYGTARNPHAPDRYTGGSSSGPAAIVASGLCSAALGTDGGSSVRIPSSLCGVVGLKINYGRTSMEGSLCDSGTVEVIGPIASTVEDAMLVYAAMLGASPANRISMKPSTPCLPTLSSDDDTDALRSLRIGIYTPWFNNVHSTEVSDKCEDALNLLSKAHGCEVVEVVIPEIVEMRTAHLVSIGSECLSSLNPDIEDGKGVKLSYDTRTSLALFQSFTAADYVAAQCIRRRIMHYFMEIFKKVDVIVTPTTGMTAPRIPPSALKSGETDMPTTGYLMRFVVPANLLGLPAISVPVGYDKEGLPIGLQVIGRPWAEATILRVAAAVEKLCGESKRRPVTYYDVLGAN

With `CCCCCCCCCCCC(=O)NCCO` [NAE 12:0, N-lauroylethanolamine], the EC50 is 18 µM in the data set with Arabidopsis seedlings (FAAH knockout seedlings, first value of the two knockout lines, read-out: EC50, rate of root elongation); 23 µM with Arabidopsis seedlings (FAAH knockout seedlings, second value of the two knockout lines, read-out: EC50, rate of root elongation); roughly 29 µM with Arabidopsis seedlings (read-out: concentration that reduced growth by 50% (EC50), rate of root elongation, wildtype seedlings). The seedling growth inhibition result in the data set with Arabidopsis seedlings (FAAH gene expression reduced, particularly knockouts, 14 d growth) was “greatly exacerbated”. The “seedling sensitivity to application” value in the data set with Arabidopsis seedlings (FAAH overexpressors, 14 d growth) is given as “essentially insensitive”. Further, the seedling growth result in the data set with Arabidopsis seedlings (wildtype seedlings, continuous exposure, 14 d growth) was “reduced”.

Consider `CCCCCCCCCCCCCCCC(=O)NCCO` [NAE 16:0, N-palmitoylethanolamine], for which the suitability as substrate result (with rice (Os) FAAH; in data set [1]) was “equally suitable substrates” in each case.

For the molecule `CCCCC/C=C\C/C=C\CCCCCCCC(=O)NCCO` [NAE 18:2, N-linoleoylethanolamine], in [2], the “hydrolysis as substrate by recombinant Arabidopsis NAE amidohydrolase” value was “effectively hydrolyzed”.

On to `O=S(=O)(F)Cc1ccccc1` [PMSF, Phenylmethylsulfonyl fluoride], for which the “Specific Activity” value in data set [3] is 11.34 ± 0.55 μmol h^−1 mg^−1 Protein and 9.06 ± 1.86 μmol h^−1 mg^−1 Protein and 7.89 ± 0.37 μmol h^−1 mg^−1 Protein and 6.72 ± 0.70 μmol h^−1 mg^−1 Protein and 5.96 ± 0.43 μmol h^−1 mg^−1 Protein.

With ceramide, in data set [2], the “hydrolysis as substrate by recombinant Arabidopsis NAE amidohydrolase” value was “did not hydrolyze” and the “influence on NAE hydrolysis” value was “nor did ceramide influence NAE hydrolysis”.

B1: recombinant Arabidopsis thaliana NAE amidohydrolase (Arabidopsis thaliana) (protein)
chain: MGKYQVMKRASEVDLSTVKYKAETMKAPHLTGLSFKLFVNLLEAPLIGSLIVDYLKKDNGMTKIFRNTVIPEEPMFRPEFPSQEPEHDVVIVGEDESPIDRLETALKCLPQYDPSRSLHADPVSSFRYWKIRDYAYAYRSKLTTPLQVAKRIISIIEEFGYDKPPTPFLIRFDANEVIKQAEASTRRFEQGNPISVLDGIFVTIKDDIDCLPHPTNGGTTWLHEDRSVEKDSAVVSKLRSCGAILLGKANMHELGMGTTGNNSNYGTTRNPHDPKRYTGGSSSGSAAIVAAGLCSAALGTDGGGSVRIPSALCGITGLKTTYGRTDMTGSLCEGGTVEIIGPLASSLEDAFLVYAAILGSSSADRYNLKPSPPCFPKLLSHNGSNAIGSLRLGKYTKWFNDVSSSDISDKCEDILKLLSNNHGCKVVEIVVPELEEMRAAHVISIGSPTLSSLTPYCEAGKNSKLSYDTRTSFAIFRSFSASDYIAAQCLRRRLMEYHLNIFKDVDVIVTPTTGMTAPVIPPDALKNGETNIQVTTDLMRFVLAANLLGFPAISVPVGYDKEGLPIGLQIMGRPWAEATVLGLAAAVEELAPVTKKPAIFYDILNTN
As for B1, the Km stood at 26.2 ± 5.3 µM in data set [4]; 17.6 ± 2.8 µM in data set [5]; 13.6 ± 2.1 µM in data set [6]; 37.0 ± 5.6 µM in data set [7]; 50.8 ± 14.1 µM in data set [8]. Also, the maximum rate (Vmax) in [4] came out at 0.235 µmol/min/mg; in [5], 0.232 µmol/min/mg; in data set [6], 0.298 µmol/min/mg; in [7], 0.152 µmol/min/mg; in data set [8], 0.202 µmol/min/mg.
